Assay results published in ChEMBL document CHEMBL3137667, “[Drug-induced liver injury; fourteenth updated edition of the bibliographic database of liver injuries and related drugs]” (Gastroenterol Clin Biol, 2004).

How the values were obtained:
[1] = human, serum, 4383 h
[2] = human
[3] = human; remark: listed apart in the source
[4] = human; remark: listed apart in the source
[5] = human; remark: listed apart in the source
[6] = human; remark: listed apart in the source
[7] = human; remark: listed apart in the source
[8] = human; remark: listed apart in the source
[9] = human; remark: listed apart in the source
[10] = human; remark: listed apart in the source
[11] = human, serum
[12] = human, serum; remark: listed apart in the source
[13] = Highest frequency of acute liver toxicity observed during clinical trials, expressed as a percentage. [column '% AIGUE' in source]; settings: human
[14] = Highest frequency of moderate liver toxicity observed during clinical trials, expressed as a percentage. [column '% BIOL' in source]; settings: human
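Throughout, for Hepatotoxicity (association with vascular disease): count of indexed literature references reporting vascular liver injury in humans, e.g. peliosis hepatitis, hepatic veno-occlusive disease or Budd-Chiari syndrome.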
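Throughout, for Hepatotoxicity (benign tumour): value is a count of indexed literature references citing a benign tumour confirmed by histopathology.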
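Throughout, for Hepatotoxicity (choleostasis): human cholestatic liver injury, shown by histopathology or by peak ALT or AST elevation over alkaline phosphatase ratio below 2, value counts indexed literature reports.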
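Throughout, for Hepatotoxicity (chronic liver disease): chronic liver injury confirmed by histopathology or persistently raised serum aminotransferase activity beyond 6 months, value given as the count of indexed literature references.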
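Throughout, for Hepatotoxicity (cirrhosis): value is a count of indexed literature references reporting cirrhosis confirmed by histopathology.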
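Throughout, for Hepatotoxicity (cytolytic): human cytolytic liver injury, shown by histopathology or by a ratio above 5 of peak ALT or AST elevation to alkaline phosphatase elevation, value counts indexed references.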
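Throughout, for Hepatotoxicity (granulomatous hepatitis): value is a count of indexed literature references reporting granulomatous liver disease confirmed by histopathology.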
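Throughout, for Hepatotoxicity (malignant tumour): malignant tumour confirmed by histopathology, value gives the count of indexed literature references reporting it.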
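Throughout, for Hepatotoxicity (severe hepatitis): human clinical data: severe hepatitis, meaning potentially life-threatening liver failure or clinically observed cases, the value counts how many indexed literature references report it.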
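Throughout, for Hepatotoxicity (steatosis): steatosis confirmed by histopathology, value is the count of indexed references.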

SMILES | Hepatotoxicity (chronic liver disease) [1] | Hepatotoxicity (benign tumour) [2] | Hepatotoxicity (cytolytic) [3] | Hepatotoxicity (choleostasis) [4] | Hepatotoxicity (malignant tumour) [5] | Hepatotoxicity (steatosis) [6] | Hepatotoxicity (severe hepatitis) [7] | Hepatotoxicity (cirrhosis) [8] | Hepatotoxicity (association with vascular disease) [9] | Hepatotoxicity (granulomatous hepatitis) [10] | Hepatotoxicity (moderate) [11] | Hepatotoxicity (acute) [12] | Hepatotoxicity (acute) [13] | Hepatotoxicity (moderate) [14] | Hepatotoxicity (cytolytic) ([3]; Liver) | Hepatotoxicity (choleostasis) ([4]; Liver) | Hepatotoxicity (severe hepatitis) ([7]; Liver) | Hepatotoxicity (granulomatous hepatitis) ([10]; Liver) | Hepatotoxicity (acute) ([13]; Liver) | Hepatotoxicity (moderate) ([14]; Liver)
NC(=O)c1cc[n+](CC2=C(C(=O)O)N3C(=O)[C@@H](NC(=O)[C@@H](c4ccccc4)S(=O)(=O)[O-])[C@H]3SC2)cc1 [CEFSULODIN] | 0 | 0 | 0 | 0 | 0 | 0 | 0 | 0 | 0 | 0 | 4 | 0 | 0% | 18.2% | – | – | – | – | – | –
Nc1nc(/C(=C/CC(=O)O)C(=O)N[C@@H]2C(=O)N3C(C(=O)O)=CCS[C@H]23)cs1 [CEFTIBUTEN] | 0 | 0 | 0 | 0 | 0 | 0 | 0 | 0 | 0 | 0 | 15 | 0 | 0% | 14.3% | – | – | – | – | – | –
CO/N=C(\C(=O)N[C@@H]1C(=O)N2C(C(=O)O)=CCS[C@H]12)c1csc(N)n1 [CEFTIZOXIME] | 0 | 0 | 1 | 1 | 0 | 0 | 0 | 0 | 0 | 0 | 32 | 4 | 1.4% | 35% | – | – | – | – | – | –
CO/N=C(\C(=O)N[C@@H]1C(=O)N2C(C(=O)O)=C(CSc3cnns3)CS[C@H]12)c1csc(N)n1 [CEFUZONAM] | 0 | 0 | 0 | 0 | 0 | 0 | 0 | 0 | 0 | 0 | 19 | 0 | 0% | 14.3% | – | – | – | – | – | –
O=C(Cc1cccs1)N[C@@H]1C(=O)N2C(C(=O)[O-])=C(C[n+]3ccccc3)CS[C@H]12 [CEPHALORIDINE] | 0 | 0 | 0 | 0 | 0 | 0 | 0 | 0 | 0 | 0 | 1 | 0 | 0% | 0% | – | – | – | – | – | –
[H]/N=C(\N/C(=N/[H])NCCCCCCNC(=N)NC(=N)Nc1ccc(Cl)cc1)Nc1ccc(Cl)cc1 [CHLORHEXIDINE] | 0 | 0 | 0 | 0 | 0 | 0 | 0 | 0 | 0 | 0 | 0 | 1 | 0% | 0% | – | – | – | – | – | –
NS(=O)(=O)c1cc(C2(O)NC(=O)c3ccccc32)ccc1Cl (stereo not given) [CHLORTHALIDONE] | 0 | 0 | 0 | 0 | 0 | 0 | 0 | 0 | 0 | 0 | 0 | 2 | 0% | 0% | – | – | – | – | – | –
CN1CCC[C@@H]1CCO[C@](C)(c1ccccc1)c1ccc(Cl)cc1 [CLEMASTINE] | 0 | 0 | 0 | 0 | 0 | 0 | 0 | 0 | 0 | 0 | 1 | 0 | 0% | 0.7% | – | – | – | – | – | –
COc1ccc([C@@H]2Sc3cc(Cl)ccc3N(CCN(C)C)C(=O)[C@@H]2OC(C)=O)cc1 [CLENTIAZEM] | 0 | 0 | 0 | 0 | 0 | 0 | 0 | 0 | 0 | 0 | 1 | 0 | 0% | 3.7% | – | – | – | – | – | –
CN(C)C(=O)CCCOC(=O)C(C)(C)Oc1ccc(Cl)cc1 [CLOFIBRIDE] | 0 | 0 | 0 | 0 | 0 | 0 | 0 | 0 | 0 | 0 | 1 | 0 | 0% | 0% | – | – | – | – | – | –
Clc1cccc(Cl)c1N=C1NCCN1 [CLONIDINE] | 0 | 0 | – | – | 0 | 0 | – | 0 | 0 | – | 1 | 0 | – | – | 0 | 0 | 0 | 0 | 0% | 12.5%
CN(C)CCC=C1c2ccccc2C=Cc2ccccc21 [CYCLOBENZAPRINE] | 0 | 0 | – | – | 0 | 0 | – | 0 | 0 | – | 1 | 1 | – | – | 0 | 0 | 0 | 0 | 0% | 0%
NS(=O)(=O)c1cc2c(cc1Cl)NC(CC1CCCC1)NS2(=O)=O (stereo not given) [CYCLOPENTHIAZIDE] | 0 | 0 | 0 | 0 | 0 | 0 | 0 | 0 | 0 | 0 | 1 | 1 | 0% | 0% | – | – | – | – | – | –
CCC1=C(C[C@H]2NCCc3cc(OC)c(OC)cc32)C[C@H]2c3cc(OC)c(OC)cc3CCN2C1 [DEHYDROEMETINE] | 0 | 0 | 0 | 0 | 0 | 0 | 0 | 0 | 0 | 0 | 1 | 0 | 0% | 0% | – | – | – | – | – | –
CC(C)Nc1cccnc1N1CCN(C(=O)c2cc3cc(NS(C)(=O)=O)ccc3[nH]2)CC1 [DELAVIRDINE] | 0 | 0 | 0 | 0 | 0 | 0 | 0 | 0 | 0 | 0 | 2 | 0 | 0% | 7.1% | – | – | – | – | – | –
